Data published in patent US6458832B1, “Carboplatin analogs for cancer treatment” (Unitech Pharmaceuticals, Inc., priority 1999, dated 2002).

Test system: human squamous carcinoma clone cancer cell line (SCC-1)
Assay: In-vitro effect on SCC-1 cell growth (cell viability by Coulter Counter)
Format: cell-based
Conditions: for Cell Count/mL: SCC-1 cells, two days after treatment at 37° C., untreated (0 μM) 5.70 × 10^5
Procedure: The in-vitro effects of sample #01 1700 on human squamous carcinoma clone cancer cell line (SCC-1).
All cell culture plasticware was purchased from Fisher. Media and antibiotics were purchased from Gibco and Sigma.
Cell viability using a Coulter Counter is used to quantify toxicity. SCC-^1 cells are grown in MEM media containing 10% Fetal Bovine Serum, 100 units/ml penicillin, 100 1μ/ml streptomycin, and 2.5 μg/ml fungizone at 37° C. in a 5% CO2 incubator. A 6 well dish is inoculated to 2.0×10^5 cells/well in a total volume of media of 2 ml. Incubation occurs overnight and the cells are ready for treatment the next day.
Stock solution of sample #01 1700 is sterile filtered with a 0.22 μm low protein binding syringe filter. Dilutions are made in fresh MEM-10% FBS.
Two days after treatment at 37° C., cells are harvested and quantified using a Coulter Counter. To harvest, all media is removed and 1 ml of 1× trypsin solution is added per well. Tryspin is in the well for approximately 5 minutes at 37° C. After 5 minutes, 1 ml of fresh MEM-10% FBS is added per well. Upon vigorous mixing to ensure breakup of aggregate cells, dilutions are made in Isoton®II ready for cell counts. Each well is counted twice. Thus, duplicate wells plus duplicate counts yield 4 cell counts per parameter above.

CC(N)C(=O)O.CC(N)C(=O)O.[Cl][Pt][Cl] (stereo not drawn) [#011700, PtCl2[CH3CH(NH)2COOH]2]
Cell Count/mL (20 μM #011700): 600000 mL⁻¹
Cell Count/mL (30 μM #011700): 580000 mL⁻¹
Cell Count/mL (40 μM #011700): 520000 mL⁻¹
Cell Count/mL (50 μM #011700): 440000 mL⁻¹
Cell Count/mL (60 μM #011700): 380000 mL⁻¹
inhibition of the growth of SCC-1 cells in-vitro (20-60 μM, two days after treatment): shows inhibition of the growth
